According to patent US11339419B2, “Scavenger protein(s) for improved preservation of analyte detection sensor(s) and method(s) of use thereof” (Siemens Healthcare Diagnostics Inc., priority 2017, dated 2022):
Where “and” joins values, the source holds several entries; their conditions need not be identical. Equal entries are not always repeated.

Assays:
[1] = system: sarcosine oxidase (BBI Solutions); assay: BBI Solutions Sarcosine Oxidase Enzyme Absorbance with BSA and MIT; type: biochemical; settings: for Sarcosine Oxidase Enzyme Absorbance, MEAN of 7-11 / Sarcosine Oxidase Enzyme Absorbance, replicates 7-11 / Sarcosine Oxidase Enzyme Absorbance, MEAN of 1-5 / Sarcosine Oxidase Enzyme Absorbance, solutions 1-5: 37° C.
Method: Tables 1-4 depict aqueous solutions comprising varying concentrations of BSA (at concentrations of 0 mg/mL, 5 mg/mL, 25 mg/mL, and 50 mg/mL), varying concentrations of MIT (at concentrations of 50 parts per million and 100 parts per million) or Proclin™ 300 (at concentrations of 0.7% and 1.4%) biocides over a particular time period (measurements were taken at days 0, 4, and 14 after exposure of the enzyme(s) to the aqueous solutions) and the associated enzyme absorbance measurements for sarcosine oxidase (commercially offered for sale by BBI Solutions and Toyobo). Absorbance measurements of the sarcosine oxidase enzyme(s) were taken via spectrophotometer for each aqueous solution (represented as columns 1-5 in Tables 1-4—column 6 is a blank), the absorbance being directly proportional to the enzyme activity being measured-which for Tables 1-4 is sarcosine oxidase enzyme activity. Accordingly, the higher the absorbance measurement, the higher the enzyme activity of sarcosine oxidase. Columns 7-11 represent five replicate readings in which the aqueous solution only contains BSA (i.e., there is no biocide(s) present in the aqueous solution). In addition, the mean values, standard deviations, and coefficients of variation are also presented for the enzyme activity/absorbance of each aqueous solution. All measurements were taken at 37° C.
As depicted below in Table 1, sarcosine oxidase (commercially offered for sale by BBI Solutions) enzyme activity is measured against various concentrations of MIT (biocide) and BSA (scavenger protein) over a period of 14 days (with absorbance measurements taken at 0, 4, and 14 days) for five different aqueous solutions (represented as columns 1-5—column 6 is a blank).

creatininase (Toyobo) = assay: Toyobo Creatininase Enzyme Absorbance with BSA and MIT; type: biochemical; settings: Day 0; 5 mg/mL BSA, no MIT (row of 50 ppm MIT)
From the text: Absorbance measurements of the creatininase enzyme(s) were taken via spectrophotometer for each aqueous solution (represented as columns 1-5 in Tables 5-8—column 6 is a blank), the absorbance being directly proportional to the enzyme activity being measured-which for Tables 5-8 is creatininase enzyme activity. Accordingly, the higher the absorbance measurement, the higher the enzyme activity of creatininase. Columns 7-11 represent five replicate readings in which the solution only contains BSA (i.e., there is no biocide(s) present in the solution). In addition, the mean values, standard deviations, and coefficients of variation are all presented for the enzyme activity/absorbance of each aqueous solution. All measurements were taken at 37° C.
As depicted in Table 6, creatininase (commercially offered for sale by Toyobo) enzyme activity is measured against various concentrations of MIT (biocide) and BSA (scavenger protein) over a period of 14 days (with absorbance measurement taken at 0, 4, and 14 days) for five different aqueous solutions (represented as columns 1-5—column 6 is a blank).

[2] = Day 0, 5 mg/mL BSA only, no MIT (50 ppm MIT row)
[3] = Day 0, 5 mg/mL BSA only, no MIT (100 ppm MIT row)
[4] = Day 0, 25 mg/mL BSA only, no MIT (50 ppm MIT row)
[5] = Day 0, 25 mg/mL BSA only, no MIT (100 ppm MIT row)
[6] = Day 0, 50 mg/mL BSA only, no MIT (50 ppm MIT row)
[7] = Day 0, 50 ppm MIT, 25 mg/mL BSA
[8] = Day 0, 50 ppm MIT, 50 mg/mL BSA
[9] = Day 0, 100 ppm MIT, 5 mg/mL BSA
[10] = Day 0, 100 ppm MIT, 25 mg/mL BSA
[11] = Day 0, 100 ppm MIT, 50 mg/mL BSA
[12] = Day 4, 50 ppm MIT, 25 mg/mL BSA
[13] = Day 4, 50 ppm MIT, 50 mg/mL BSA
[14] = Day 4, 100 ppm MIT, 5 mg/mL BSA
[15] = Day 4, 100 ppm MIT, 25 mg/mL BSA
[16] = Day 4, 100 ppm MIT, 50 mg/mL BSA
[17] = Day 14, 50 ppm MIT, 5 mg/mL BSA
[18] = Day 14, 50 ppm MIT, 25 mg/mL BSA
[19] = Day 14, 50 ppm MIT, 50 mg/mL BSA
[20] = Day 14, 100 ppm MIT, 5 mg/mL BSA
[21] = Day 14, 100 ppm MIT, 25 mg/mL BSA
[22] = Day 14, 100 ppm MIT, 50 mg/mL BSA

In the case of bovine serum albumin [BSA], the “Sarcosine Oxidase Enzyme Absorbance, MEAN of 7-11” value [1, 2] is reported as 1.39, the “Sarcosine Oxidase Enzyme Absorbance, replicates 7-11” value [1, 2] is reported as 1.428 and the “Sarcosine Oxidase Enzyme Absorbance, MEAN of 7-11” value [1, 3] is reported as 1.38. The “Sarcosine Oxidase Enzyme Absorbance, replicates 7-11” value [1, 3] was 1.439 and 1.414 and 1.437 and 1.422, the “Sarcosine Oxidase Enzyme Absorbance, MEAN of 7-11” value [1, 4] was 1.37 and the “Sarcosine Oxidase Enzyme Absorbance, replicates 7-11” value [1, 4] was 1.434. The “Sarcosine Oxidase Enzyme Absorbance, MEAN of 7-11” value [1, 5] was 1.39, the “Sarcosine Oxidase Enzyme Absorbance, replicates 7-11” value [1, 5] was 1.43 and 1.428 and 1.409 and 1.458 and the “Sarcosine Oxidase Enzyme Absorbance, MEAN of 7-11” value [1, 6] was 1.41. For the same substance, the “Sarcosine Oxidase Enzyme Absorbance, replicates 7-11” value [1, 6] was 1.454, the “Sarcosine Oxidase Enzyme Absorbance, MEAN of 7-11” value ([1]; Day 0, 50 mg/mL BSA only, no MIT (100 ppm MIT row)) was 1.35 and the “% Bias” value ([1]; Day 0, 50 ppm MIT vs no MIT, 5 mg/mL BSA) was 2.3%. The “% Bias” value ([1]; Day 0, 50 ppm MIT vs no MIT, 25 mg/mL BSA) was −0.5%, the “% Bias” value ([1]; Day 0, 50 ppm MIT vs no MIT, 50 mg/mL BSA) was −0.1% and the “Sarcosine Oxidase Enzyme Absorbance, MEAN of 1-5” value ([1]; Day 0, 50 ppm MIT, 5 mg/mL BSA) was 1.42. The “Sarcosine Oxidase Enzyme Absorbance, solutions 1-5” value ([1]; Day 0, 50 ppm MIT, 5 mg/mL BSA) was 1.484 and 1.435 and 1.486 and 1.455 and 1.454, the “Sarcosine Oxidase Enzyme Absorbance, MEAN of 1-5” value [1, 7] was 1.37 and the “Sarcosine Oxidase Enzyme Absorbance, solutions 1-5” value [1, 7] was 1.385 and 1.39 and 1.401 and 1.423 and 1.433. For the same substance, the “Sarcosine Oxidase Enzyme Absorbance, MEAN of 1-5” value [1, 8] was 1.41, the “Sarcosine Oxidase Enzyme Absorbance, solutions 1-5” value [1, 8] was 1.445 and 1.468 and 1.458 and 1.406 and 1.484 and the “% Bias” value ([1]; Day 0, 100 ppm MIT vs no MIT, 5 mg/mL BSA) was −0.3%. For the same substance, the “% Bias” value ([1]; Day 0, 100 ppm MIT vs no MIT, 25 mg/mL BSA) was 2.0%, the “% Bias” value ([1]; Day 0, 100 ppm MIT vs no MIT, 50 mg/mL BSA) was 1.9% and the “Sarcosine Oxidase Enzyme Absorbance, MEAN of 1-5” value [1, 9] was 1.38. The “Sarcosine Oxidase Enzyme Absorbance, solutions 1-5” value [1, 9] was 1.41 and 1.418 and 1.423 and 1.42 and 1.425, the “Sarcosine Oxidase Enzyme Absorbance, MEAN of 1-5” value [1, 10] was 1.41 and the “Sarcosine Oxidase Enzyme Absorbance, solutions 1-5” value [1, 10] was 1.447 and 1.459 and 1.456 and 1.449 and 1.468. For the same substance, the “Sarcosine Oxidase Enzyme Absorbance, MEAN of 1-5” value [1, 11] was 1.38, the “Sarcosine Oxidase Enzyme Absorbance, solutions 1-5” value [1, 11] was 1.396 and 1.419 and 1.45 and 1.414 and 1.413 and the “Sarcosine Oxidase Enzyme Absorbance, MEAN of 7-11” value ([1]; Day 4, 5 mg/mL BSA only, no MIT (50 ppm MIT row)) was 1.41. For the same substance, the “Sarcosine Oxidase Enzyme Absorbance, MEAN of 7-11” value ([1]; Day 4, 5 mg/mL BSA only, no MIT (100 ppm MIT row)) was 1.36, the “Sarcosine Oxidase Enzyme Absorbance, MEAN of 7-11” value ([1]; Day 4, 25 mg/mL BSA only, no MIT (50 ppm MIT row)) was 1.37 and the “Sarcosine Oxidase Enzyme Absorbance, MEAN of 7-11” value ([1]; Day 4, 25 mg/mL BSA only, no MIT (100 ppm MIT row)) was 1.36. The “Sarcosine Oxidase Enzyme Absorbance, MEAN of 7-11” value ([1]; Day 4, 50 mg/mL BSA only, no MIT (50 ppm MIT row)) was 1.47, the “Sarcosine Oxidase Enzyme Absorbance, MEAN of 7-11” value ([1]; Day 4, 50 mg/mL BSA only, no MIT (100 ppm MIT row)) was 1.36 and the “% Bias” value ([1]; Day 4, 50 ppm MIT vs no MIT, 5 mg/mL BSA) was 1.4%. For the same substance, the “% Bias” value ([1]; Day 4, 50 ppm MIT vs no MIT, 25 mg/mL BSA) was 3.0%, the “% Bias” value ([1]; Day 4, 50 ppm MIT vs no MIT, 50 mg/mL BSA) was −7.2% and the “Sarcosine Oxidase Enzyme Absorbance, MEAN of 1-5” value ([1]; Day 4, 50 ppm MIT, 5 mg/mL BSA) was 1.43. For the same substance, the “Sarcosine Oxidase Enzyme Absorbance, solutions 1-5” value ([1]; Day 4, 50 ppm MIT, 5 mg/mL BSA) was 1.47 and 1.446 and 1.456 and 1.467, the “Sarcosine Oxidase Enzyme Absorbance, MEAN of 1-5” value [1, 12] was 1.41 and the “Sarcosine Oxidase Enzyme Absorbance, solutions 1-5” value [1, 12] was 1.446 and 1.431 and 1.432 and 1.448 and 1.434. The “Sarcosine Oxidase Enzyme Absorbance, MEAN of 1-5” value [1, 13] was 1.37, the “Sarcosine Oxidase Enzyme Absorbance, solutions 1-5” value [1, 13] was 1.429 and 1.415 and 1.37 and 1.398 and 1.381 and the “% Bias” value ([1]; Day 4, 100 ppm MIT vs no MIT, 5 mg/mL BSA) was 1.5%. For the same substance, the “% Bias” value ([1]; Day 4, 100 ppm MIT vs no MIT, 25 mg/mL BSA) was 1.0%, the “% Bias” value ([1]; Day 4, 100 ppm MIT vs no MIT, 50 mg/mL BSA) was 1.0% and the “Sarcosine Oxidase Enzyme Absorbance, MEAN of 1-5” value [1, 14] was 1.38. The “Sarcosine Oxidase Enzyme Absorbance, solutions 1-5” value [1, 14] was 1.404 and 1.416 and 1.435 and 1.42, the “Sarcosine Oxidase Enzyme Absorbance, MEAN of 1-5” value [1, 15] was 1.37 and the “Sarcosine Oxidase Enzyme Absorbance, solutions 1-5” value [1, 15] was 1.42 and 1.392 and 1.415 and 1.383 and 1.4. For the same substance, the “Sarcosine Oxidase Enzyme Absorbance, MEAN of 1-5” value [1, 16] was 1.38, the “Sarcosine Oxidase Enzyme Absorbance, solutions 1-5” value [1, 16] was 1.397 and 1.396 and 1.413 and 1.425 and 1.412 and the “Sarcosine Oxidase Enzyme Absorbance, MEAN of 7-11” value ([1]; Day 14, 5 mg/mL BSA only, no MIT (50 ppm MIT row)) was 1.39. The “Sarcosine Oxidase Enzyme Absorbance, MEAN of 7-11” value ([1]; Day 14, 5 mg/mL BSA only, no MIT (100 ppm MIT row)) was 1.42, the “Sarcosine Oxidase Enzyme Absorbance, MEAN of 7-11” value ([1]; Day 14, 25 mg/mL BSA only, no MIT (50 ppm MIT row)) was 1.38 and the “Sarcosine Oxidase Enzyme Absorbance, MEAN of 7-11” value ([1]; Day 14, 25 mg/mL BSA only, no MIT (100 ppm MIT row)) was 1.40. The “Sarcosine Oxidase Enzyme Absorbance, MEAN of 7-11” value ([1]; Day 14, 50 mg/mL BSA only, no MIT (50 ppm MIT row)) was 1.37, the “Sarcosine Oxidase Enzyme Absorbance, MEAN of 7-11” value ([1]; Day 14, 50 mg/mL BSA only, no MIT (100 ppm MIT row)) was 1.44 and the “% Bias” value ([1]; Day 14, 50 ppm MIT vs no MIT, 5 mg/mL BSA) was −1.0%. The “% Bias” value ([1]; Day 14, 50 ppm MIT vs no MIT, 25 mg/mL BSA) was −0.2%, the “% Bias” value ([1]; Day 14, 50 ppm MIT vs no MIT, 50 mg/mL BSA) was 1.5% and the “Sarcosine Oxidase Enzyme Absorbance, MEAN of 1-5” value [1, 17] was 1.37. For the same substance, the “Sarcosine Oxidase Enzyme Absorbance, solutions 1-5” value [1, 17] was 1.413 and 1.372 and 1.41 and 1.423 and 1.437, the “Sarcosine Oxidase Enzyme Absorbance, MEAN of 1-5” value [1, 18] was 1.38 and the “Sarcosine Oxidase Enzyme Absorbance, solutions 1-5” value [1, 18] was 1.413 and 1.41 and 1.422 and 1.427. For the same substance, the “Sarcosine Oxidase Enzyme Absorbance, MEAN of 1-5” value [1, 19] was 1.39, the “Sarcosine Oxidase Enzyme Absorbance, solutions 1-5” value [1, 19] was 1.434 and 1.444 and 1.427 and 1.431 and 1.432 and the “% Bias” value ([1]; Day 14, 100 ppm MIT vs no MIT, 5 mg/mL BSA) was 0.3%. The “% Bias” value ([1]; Day 14, 100 ppm MIT vs no MIT, 25 mg/mL BSA) was −0.2%, the “% Bias” value ([1]; Day 14, 100 ppm MIT vs no MIT, 50 mg/mL BSA) was −0.8% and the “Sarcosine Oxidase Enzyme Absorbance, MEAN of 1-5” value [1, 20] was 1.43. For the same substance, the “Sarcosine Oxidase Enzyme Absorbance, solutions 1-5” value [1, 20] was 1.479 and 1.506 and 1.389 and 1.39 and 1.577, the “Sarcosine Oxidase Enzyme Absorbance, MEAN of 1-5” value [1, 21] was 1.40 and the “Sarcosine Oxidase Enzyme Absorbance, solutions 1-5” value [1, 21] was 1.422 and 1.404 and 1.428 and 1.458 and 1.477. The “Sarcosine Oxidase Enzyme Absorbance, MEAN of 1-5” value [1, 22] was 1.43, the “Sarcosine Oxidase Enzyme Absorbance, solutions 1-5” value [1, 22] was 1.442 and 1.477 and 1.456 and 1.492 and 1.478 and the “absorbance of the sarcosine oxidase enzyme compared to samples containing 0 mg/mL of BSA” value ([1]; days 4 and 14, 5, 25 and 50 mg/mL BSA, with MIT) was “increased absorbance”. For the same substance, the “sarcosine oxidase absorbance, solutions 7-11” value ([1]; days 4 and 14, only BSA, no MIT) was “increased (or at least maintained)” and the “Creatininase Enzyme Absorbance, columns 7-11” value (creatininase (Toyobo)) was 0.791 and 0.78.
